{"source": "paper PMC3853024", "about": "“Aromatase inhibitor treatment with an intravaginal device and its effect on pre-ovulatory ovarian follicles in a bovine model” (Reproductive Biology and Endocrinology : RB&E, 2013)", "assay": "Pharmacokinetics of a letrozole-containing intravaginal device in heifers (plasma letrozole by LCMS/MS)", "format": "in vivo, cattle (Hereford-cross beef heifers)", "conditions": "for half-life: read-out: Half-life (T1/2) (converted); for Cmax: read-out: Maximal concentration (Cmax); for MRT: read-out: Mean residence time (MRT); for clearance: read-out: Systemic clearance (ClS) (converted); for Vd/F: read-out: Volume of distribution (Vz/f)", "experimental": "Intravaginal devices were prepared using a Cue-Mate spine (Bioniche Animal Health, Bellville, ON, Canada) assembled with two blank (progesterone-free) silicone pods that were coated with a gel-based vehicle containing letrozole or vehicle only (control). The vehicle contained the following (all ingredients % w/w): letrozole 10%, gelatin 20% (Gelatin type B, Fisher Scientific, Pittsburgh, PA, USA), polymer 65% (prepared by mixing distilled water 68%, Poloxamer 188 12% and Poloxamer 407 20%, both from Spectrum Chemical, New Brunswick, NJ, USA) and distilled water 5%.\nBlood samples were collected by coccygeal venipuncture into 10 mL heparinized vacuum tubes (Becton Dickinson Vacutainer Systems, Franklin Lakes, NJ, USA). Samples were collected daily from pre-treatment follicular wave emergence (Day 0) to 12 days after the subsequent ovulation. In a subset of letrozole-treated animals (n=4), frequent blood samples were collected using an in-dwelling jugular catheter, as previously described, at the time of catheter placement and 0, 10, 20, 30 min, 1, 1.5, 2, 3, 4, 6, 8, 12 and 24 h after treatment for measurement of plasma letrozole concentration. Blood samples were centrifuged at 1500 × g for 20 min and plasma was separated and stored in plastic tubes at -20°C.\nPlasma letrozole concentrations were quantified using liquid chromatography tandem mass spectrometry (LCMS/MS), as described. Briefly, letrozole was extracted from […] with […] of 0.1M ammonium acetate followed by the addition of 5 mL methyl t-butyl ether (MTBE) and vortexed for 15 s. The organic layer was removed and transferred to a fresh 15 mL plastic tube and dried by gentle nitrogen gas flow. The dried extract was reconstituted in 1 mL of 100% ethanol. Separation was accomplished by HPLC (Agilent 1200; Agilent, Santa Clara, CA, USA) fitted with an analytical column (50 × 2.1 mm, […] particle size; Betasil C18; Thermo Scientific, Waltham, MA, USA) operated at 35°C. Mass spectra were collected using a tandem mass spectrometer (SCIEX 3000; Applied Bioscience, Foster City, CA, USA) fitted with an electrospray ionisation source, operated in the negative ionisation mode. Quantification was performed using Analyst 1.4.1 software provided by SCIEX (Applied Bioscience). The minimum and maximum values along the standard curve were 0.25 and 500 ng/mL, respectively. The limit of quantification used in this method was 0.25 ng/mL and the mean recovery was 70%.\nThe following pharmacokinetic parameters were determined: Cmax (maximum observed plasma concentration of letrozole), tmax (time to reach Cmax), t1/2 (terminal elimination half-life), AUC (area under the plasma letrozole concentration-time curve from zero to infinity calculated as AUCtlast). The concentration of letrozole in plasma as a function of time (C–t) data for each heifer was analyzed by non-compartmental techniques using a computer modeling program (WinNonLin Standard Edition Version 2.1, Pharsight Corporation, Mountain View, CA, USA). Peak letrozole concentration in plasma (Cmax) and time to peak letrozole concentration (tmax) were determined using observed values. The apparent terminal rate constant (λ) was determined by linear regression of the last 6–8 points on the terminal phase of the logarithmic plasma concentration vs time curve. The area under the C–t curve until the final plasma sample (AUClast) was determined using the linear trapezoidal rule. The total area under the curve extrapolated to infinity (AUC0-∞) was calculated by adding the Clast obs/λ + AUClast. The terminal half-life (T1/2λ) was calculated as ln2 ⁄λ. The mean residence time (MRT) was calculated as the area under the moment curve extrapolated to infinity (AUMC0-∞) ⁄AUC0-∞. Systemic clearance (ClS) was determined using the dose divided by AUC0-inf. The apparent volume of distribution (Vλ/f) was calculated by clearance divided by λ. […]", "key": {"[1]": {"conditions": "Mean of 4 heifers, intravaginal device 1 g letrozole"}, "[2]": {"conditions": "female, Hereford-cross, bovine, plasma, 1 g, Heifer 1, intravaginal device 1 g letrozole"}, "[3]": {"conditions": "female, Hereford-cross, bovine, plasma, 1 g, Heifer 2, intravaginal device 1 g letrozole"}, "[4]": {"conditions": "female, Hereford-cross, bovine, plasma, 1 g, Heifer 3, intravaginal device 1 g letrozole"}, "[5]": {"conditions": "female, Hereford-cross, bovine, plasma, 1 g, Heifer 4, intravaginal device 1 g letrozole"}, "[6]": {"conditions": "female, Hereford-cross, bovine, plasma, 1 g, Mean of 4 heifers, intravaginal device 1 g letrozole"}}, "note": "Read-outs that look alike come from different tables or passages of the source."}
{"smiles": "N#Cc1ccc(C(c2ccc(C#N)cc2)n2cncn2)cc1", "note": "[Letrozole]", "values": [{"measurement": "Area under the curve (AUClast)", "setting": "Heifer 1, intravaginal device 1 g letrozole", "result": 3538.1, "unit": "hours x ng/mL"}, {"measurement": "Area under the curve (AUClast)", "setting": "Heifer 2, intravaginal device 1 g letrozole", "result": 2697.7, "unit": "hours x ng/mL"}, {"measurement": "Area under the curve (AUClast)", "setting": "Heifer 3, intravaginal device 1 g letrozole", "result": 2583.1, "unit": "hours x ng/mL"}, {"measurement": "Area under the curve (AUClast)", "setting": "Heifer 4, intravaginal device 1 g letrozole", "result": 1698.0, "unit": "hours x ng/mL"}, {"measurement": "Area under the curve (AUClast)", "setting": "[1]", "result": 2629.2, "unit": "hours x ng/mL"}, {"measurement": "Half-life (T1/2)", "setting": "[1]", "result": 33.3, "unit": "h"}, {"measurement": "half-life", "setting": "[2]", "result": 35.1, "unit": "h"}, {"measurement": "Cmax", "setting": "[2]", "result": 32.4, "unit": "ng/mL"}, {"measurement": "MRT", "setting": "[2]", "result": 71.5, "unit": "h"}, {"measurement": "clearance", "setting": "[2]", "result": 1.67, "unit": "mL/min/kg"}, {"measurement": "Vd/F", "setting": "[2]", "result": 6.2, "unit": "L/kg"}, {"measurement": "half-life", "setting": "[3]", "result": 20.4, "unit": "h"}, {"measurement": "Cmax", "setting": "[3]", "result": 35.3, "unit": "ng/mL"}, {"measurement": "MRT", "setting": "[3]", "result": 56.2, "unit": "h"}, {"measurement": "clearance", "setting": "[3]", "result": 3.33, "unit": "mL/min/kg"}, {"measurement": "Vd/F", "setting": "[3]", "result": 4.9, "unit": "L/kg"}, {"measurement": "half-life", "setting": "[4]", "result": 41.9, "unit": "h"}, {"measurement": "Cmax", "setting": "[4]", "result": 27.3, "unit": "ng/mL"}, {"measurement": "MRT", "setting": "[4]", "result": 65.5, "unit": "h"}, {"measurement": "clearance", "setting": "[4]", "result": 3.33, "unit": "mL/min/kg"}, {"measurement": "Vd/F", "setting": "[4]", "result": 9.9, "unit": "L/kg"}, {"measurement": "half-life", "setting": "[5]", "result": 35.7, "unit": "h"}, {"measurement": "Cmax", "setting": "[5]", "result": 31.7, "unit": "ng/mL"}, {"measurement": "MRT", "setting": "[5]", "result": 48.7, "unit": "h"}, {"measurement": "clearance", "setting": "[5]", "result": 5, "unit": "mL/min/kg"}, {"measurement": "Vd/F", "setting": "[5]", "result": 13.2, "unit": "L/kg"}, {"measurement": "half-life", "setting": "[6]", "result": 33, "unit": "h"}, {"measurement": "Cmax", "setting": "[6]", "result": 31.7, "unit": "ng/mL"}, {"measurement": "MRT", "setting": "[6]", "result": 60.5, "unit": "h"}, {"measurement": "clearance", "setting": "[6]", "result": 3.33, "unit": "mL/min/kg"}, {"measurement": "Vd/F", "setting": "[6]", "result": 8.5, "unit": "L/kg"}, {"measurement": "bioavailability", "setting": "female, Hereford-cross, bovine, plasma, other: intravaginal device, 1 g, Mean, intravaginal device AUClast versus single iv injection AUClast (unpublished data), corrected by dose", "result": 16, "unit": "%"}, {"measurement": "Tmax", "setting": "female, Hereford-cross, bovine, plasma, other: intravaginal device, 1 g, post-device insertion, n=4, read-out: Time of maximal concentration in plasma (tmax)", "result": 24, "unit": "h"}, {"measurement": "Duration of letrozole release from the intravaginal device", "setting": "post-insertion, inferred from plasma letrozole concentration profile", "result": 24, "unit": "h"}]}
